Values quoted from earlier work in patent US6521028B1, “Low hazard corrosion inhibitors and cleaning solutions using quaternary ammonium salts” (HydroChem Industrial Services, Inc., priority 1996, dated 2003).

Columns and labels:
[1] = not given; remark: listed apart in the source

| Compound | LD50 (oral rats) [mg/kg] | amount fatal to humans [1] [mL] |
| --- | --- | --- |
| NC(N)=S [thiourea] | 125 | – |
| COC(C)COC(C)CO (stereo not drawn) [dipropylene glycol methyl ether] | 5130 | – |
| CC(C)O [Isopropanol, isopropanol] | – | ≥ 100 |
